Tested on: diarrhea-predominant IBS subjects
Test: 3007 Study: open-label 52-week safety study, adverse events and withdrawals
Settings: Overall

Cc1nccn1C[C@H]1CCc2c(c3cccc4c3n2CCC4)C1=O [cilansetron, (R)-(−)-4,5,6,8,9,10-hexahydro-10-[(2-methyl-1H-imidazol-1-yl)methyl]-11H-pyrido-[3,2,1-jk]-carbazol-11-one]
TEAE: Atopic Disorders: 5 (<1%) n (%) | TEAE: Atrial Fibrillation: 1 (<1%) n (%) | TEAE: Atrioventricular Block First Degree: 1 (<1%) n (%) | TEAE: Back Injury NOS: 3 (<1%) n (%) | TEAE: Back Pain: 18 (3%) n (%) | TEAE: Back Pain Aggravated: 3 (<1%) n (%) | TEAE: Bacteria Identification and Serology (Excl Mycobacteria): 1 (<1%) n (%) | TEAE: Basal Cell Carcinoma: 6 (1%) n (%) | TEAE: Behaviour and Socialisation Disturbances: 1 (<1%) n (%) | TEAE: Benign Ovarian Tumour*: 1 (<1%) n (%) | TEAE: Biliary Tract Disorder NOS: 1 (<1%) n (%) | TEAE: Bilirubin Urine: 1 (<1%) n (%) | TEAE: Binocular Eye Movement Disorder NOS: 1 (<1%) n (%) | TEAE: Bladder Disorders NEC: 1 (<1%) n (%) | TEAE: Bladder Infection NOS: 1 (<1%) n (%) | TEAE: Bladder Infections and Inflammations: 1 (<1%) n (%) | TEAE: Bladder Prolapse: 1 (<1%) n (%) | TEAE: Bladder and Urethral Symptoms: 7 (1%) n (%) | TEAE: Blood Alkaline Phosphatase NOS Increased: 3 (<1%) n (%) | TEAE: Blood Bilirubin Increased: 4 (<1%) n (%) | TEAE: Blood Cholesterol Increased: 19 (4%) n (%) | TEAE: Blood Creatine Phosphokinase Increased: 27 (5%) n (%) | TEAE: Blood Creatine Phosphokinase Mb Increased: 1 (<1%) n (%) | TEAE: Blood Creatinine Increased: 4 (<1%) n (%) | TEAE: Blood Glucose Increased: 2 (<1%) n (%) | TEAE: Blood Potassium Increased: 1 (<1%) n (%) | TEAE: Blood Pressure Increased: 5 (<1%) n (%) | TEAE: Blood Sodium Increased: 1 (<1%) n (%) | TEAE: Blood Triglycerides Increased: 10 (2%) n (%) | TEAE: Blood Uric Acid Increased: 2 (<1%) n (%) | TEAE: Blood Urine Present: 10 (2%) n (%) | TEAE: Blood and Lymphatic System Disorders: 5 (<1%) n (%) | TEAE: Blood in Stool: 8 (1%) n (%) | TEAE: Bone Density Decreased: 1 (<1%) n (%) | TEAE: Bone Disorder NOS: 1 (<1%) n (%) | TEAE: Bone Disorders NEC: 3 (<1%) n (%) | TEAE: Bone Injury: 1 (<1%) n (%) | TEAE: Bone Neoplasm Malignant: 1 (<1%) n (%) | TEAE: Bone Neoplasms Malignant (Excl Sarcomas): 1 (<1%) n (%) | TEAE: Bone Spur: 1 (<1%) n (%) | TEAE: Bradyarrhythmia: 1 (<1%) n (%) | TEAE: Breast Calcifications*: 1 (<1%) n (%) | TEAE: Breast Cancer NOS*: 2 (<1%) n (%) | TEAE: Breast Disorder NOS*: 1 (<1%) n (%) | TEAE: Breast Disorders NEC*: 5 (1%) n (%) | TEAE: Breast Mass NOS*: 3 (<1%) n (%) | TEAE: Breast and Nipple Neoplasms Malignant*: 2 (<1%) n (%) | TEAE: Breath Sounds Decreased: 1 (<1%) n (%) | TEAE: Breathing Abnormalities: 3 (<1%) n (%) | TEAE: Bronchitis Acute NOS: 3 (<1%) n (%) | TEAE: Bronchitis NOS: 23 (4%) n (%) | TEAE: Bronchopneumonia NOS: 1 (<1%) n (%) | TEAE: Bronchospasm and Obstruction: 4 (<1%) n (%) | TEAE: Bruising, Ecchymosis and Purpura: 1 (<1%) n (%) | TEAE: Bundle Branch Block Right: 1 (<1%) n (%) | TEAE: Bunion: 2 (<1%) n (%) | TEAE: Bursal Disorders: 6 (1%) n (%) | TEAE: Bursitis: 3 (<1%) n (%) | TEAE: Calculus Renal NOS: 3 (<1%) n (%) | TEAE: Calculus Ureteric: 1 (<1%) n (%) | TEAE: Candida Infections: 4 (<1%) n (%) | TEAE: Candidal Infection NOS: 2 (<1%) n (%) | TEAE: Carbohydrate Tolerance Analyses (Incl Diabetes): 2 (<1%) n (%) | TEAE: Cardiac Auscultatory Investigations: 1 (<1%) n (%) | TEAE: Cardiac Conduction Disorders: 2 (<1%) n (%) | TEAE: Cardiac Disorders: 16 (3%) n (%) | TEAE: Cardiac Fibrillation NOS: 1 (<1%) n (%) | TEAE: Cardiac Flutter: 1 (<1%) n (%) | TEAE: Cardiac Murmur NOS: 1 (<1%) n (%) | TEAE: Cardiac Signs and Symptoms NEC: 4 (<1%) n (%) | TEAE: Carotid Bruit: 1 (<1%) n (%) | TEAE: Carpal Tunnel Syndrome: 3 (<1%) n (%) | TEAE: Cartilage Disorder NOS: 1 (<1%) n (%) | TEAE: Cartilage Disorders: 1 (<1%) n (%) | TEAE: Cataract Unilateral: 1 (<1%) n (%) | TEAE: Cataracts (Excl Congenital): 2 (<1%) n (%) | TEAE: Cellulitis: 1 (<1%) n (%) | TEAE: Cerumen Impaction: 2 (<1%) n (%) | TEAE: Cervical Spasm: 1 (<1%) n (%) | TEAE: Change in Bowel Habit NOS: 1 (<1%) n (%) | TEAE: Chapped Lips: 1 (<1%) n (%) | TEAE: Chest Discomfort: 1 (<1%) n (%) | TEAE: Chest Pain: 7 (1%) n (%) | TEAE: Chest Tightness: 1 (<1%) n (%) | TEAE: Chest Wall Pain: 2 (<1%) n (%) | TEAE: Cholecystitis and Cholelithiasis: 2 (<1%) n (%) | TEAE: Cholelithiasis: 2 (<1%) n (%) | TEAE: Cholesterol Analyses: 19 (4%) n (%) | TEAE: Colitis (Excl Infective): 1 (<1%) n (%) | TEAE: Colitis Ischaemic: 1 (<1%) n (%) | TEAE: Colonic Polyp: 1 (<1%) n (%) | TEAE: Congenital, Familial and Genetic Disorders: 1 (<1%) n (%) | TEAE: Conjunctival Infections, Irritations and Inflammations: 2 (<1%) n (%) | TEAE: Conjunctivitis: 1 (<1%) n (%) | TEAE: Conjunctivitis Allergic: 1 (<1%) n (%) | TEAE: Connective Tissue Disorders (Excl Le): 4 (<1%) n (%) | TEAE: Constipation: 128 (24%) n (%) | TEAE: Contusion: 3 (<1%) n (%) | TEAE: Cough: 11 (2%) n (%) | TEAE: Coughing and Associated Symptoms: 12 (2%) n (%) | TEAE: Cyst NOS: 1 (<1%) n (%) | TEAE: Cystitis Interstitial: 1 (<1%) n (%) | TEAE: Cystitis NOS: 1 (<1%) n (%) | TEAE: Dacryostenosis Acquired: 1 (<1%) n (%) | TEAE: Deafness NOS: 1 (<1%) n (%) | TEAE: Dehydration: 2 (<1%) n (%) | TEAE: Dental Disorders NEC: 1 (<1%) n (%) | TEAE: Dental Infections - Pathogen Class Unspecified: 11 (2%) n (%) | TEAE: Dental Pain and Sensation Disorders: 3 (<1%) n (%) | TEAE: Depression: 9 (2%) n (%) | TEAE: Depression Aggravated: 4 (<1%) n (%) | TEAE: Depressive Disorders: 13 (2%) n (%) | TEAE: Dermal and Epidermal Conditions NEC: 5 (<1%) n (%) | TEAE: Dermatitis Allergic: 1 (<1%) n (%) | TEAE: Dermatitis Ascribed to Specific Agent: 1 (<1%) n (%) | TEAE: Dermatitis Contact: 2 (<1%) n (%) | TEAE: Dermatitis Medicamentosa: 1 (<1%) n (%) | TEAE: Dermatitis NOS: 1 (<1%) n (%) | TEAE: Dermatitis and Eczema: 6 (1%) n (%) | TEAE: Dermographism: 1 (<1%) n (%) | TEAE: Diabetes Mellitus (Incl Subtypes): 3 (<1%) n (%) | TEAE: Diabetes Mellitus Aggravated: 2 (<1%) n (%) | TEAE: Diabetes Mellitus Non-Insulin-Dependent: 1 (<1%) n (%) | TEAE: Diaphragmatic Hernias: 2 (<1%) n (%) | TEAE: Diarrhoea (Excl Infective): 39 (7%) n (%) | TEAE: Diarrhoea Aggravated: 5 (<1%) n (%) | TEAE: Diarrhoea Haemorrhagic: 2 (<1%) n (%) | TEAE: Diarrhoea NOS: 31 (6%) n (%) | TEAE: Disturbances in Consciousness NEC: 4 (<1%) n (%) | TEAE: Disturbances in Initiating and Maintaining Sleep: 6 (1%) n (%) | TEAE: Diverticulitis NOS: 2 (<1%) n (%) | TEAE: Diverticulum Inflammations: 2 (<1%) n (%) | TEAE: Dizziness: 6 (1%) n (%) | TEAE: Drug Hypersensitivity: 1 (<1%) n (%) | TEAE: Dry Eye NOS: 2 (<1%) n (%) | TEAE: Dry Mouth: 2 (<1%) n (%) | TEAE: Dysarthria: 1 (<1%) n (%) | TEAE: Dysfunctional Uterine Bleeding*: 1 (<1%) n (%) | TEAE: Dyshidrosis: 1 (<1%) n (%) | TEAE: Dyskinesias and Movement Disorders NEC: 1 (<1%) n (%) | TEAE: Dyspepsia: 13 (2%) n (%) | TEAE: Dyspepsia Aggravated: 2 (<1%) n (%) | TEAE: Dyspeptic Signs and Symptoms: 17 (3%) n (%) | TEAE: Dyspnoea NOS: 3 (<1%) n (%) | TEAE: Dysuria: 1 (<1%) n (%) | TEAE: ECG Investigations: 2 (<1%) n (%) | TEAE: Ear Disorders NEC: 2 (<1%) n (%) | TEAE: Ear Infection NOS: 4 (<1%) n (%) | TEAE: Ear Infections: 5 (<1%) n (%) | TEAE: Ear Pain: 2 (<1%) n (%) | TEAE: Ear and Labyrinth Disorders: 10 (2%) n (%) | TEAE: Eczema: 2 (<1%) n (%) | TEAE: Electrocardiogram Qrs Complex Abnormal: 1 (<1%) n (%) | TEAE: Electrocardiogram T Wave Inversion: 1 (<1%) n (%) | TEAE: Elevated Cholesterol: 6 (1%) n (%) | TEAE: Endocrine Disorders: 4 (<1%) n (%) | TEAE: Endometriosis*: 2 (<1%) n (%) | TEAE: Enteritis: 1 (<1%) n (%) | TEAE: Epigastric Discomfort: 1 (<1%) n (%) | TEAE: Eructation: 2 (<1%) n (%) | TEAE: Erythema: 1 (<1%) n (%) | TEAE: Erythemas: 1 (<1%) n (%) | TEAE: External Ear Disorders NEC: 2 (<1%) n (%) | TEAE: Eye Disorders: 13 (2%) n (%) | TEAE: Eye Injuries NEC: 1 (<1%) n (%) | TEAE: Faecal Abnormality NOS: 2 (<1%) n (%) | TEAE: Faecal Impaction: 1 (<1%) n (%) | TEAE: Faecal Incontinence: 4 (<1%) n (%) | TEAE: Faecal Occult Blood Positive: 31 (6%) n (%)

Reference: patent publication US20070093520A1, “Method of treatment of diarrhea-predominant irritable bowel syndrome in a subject” (priority 2005, published 2007)
